Read-outs that look alike come from different tables or passages of the source. Bounds are passed on as bounds.

For data set [1] the following is noted: background statement, cited from earlier work; for solubility in alcohols: alcohols such as methanol, ethanol, isopropanol.
The nature of data set [2]: Solubility in water and organic solvents (descriptive).
Data set [3] can be described thus: Methylene chloride solubility test of milled guaifenesin tannate powders (Example 4). It counts as physicochemical. The method, then:
Two gram samples of finely milled guaifenesin tannate powders were taken from each of the products prepared in Examples 1-3. Each sample was mixed with 110 g of methylene chloride and was stirred for 10 minutes at ambient temperature. Each mixture was then filtered. The insoluble material was dried and weighed and the filtrate was evaporated to dryness and the residue was weighed The results were as follows: […]

Regarding `COc1ccccc1OCC(O)CO` (centres unmarked) [guaifenesin, 3-(2-methoxyphenoxy)-1,2-propanediol], in data set [1], the “solubility in alcohols” value is listed as “readily soluble” and the solubility in water entry is “about 5 wt. %”. Besides, in data set [2], the solubility in alcohols result is given as “soluble”, the “solubility in methylene chloride” value is on record as “soluble”, the solubility in toluene result is listed as “sparingly soluble” and the solubility in water result is “soluble”.
Regarding `O=C(OC[C@H]1O[C@@H](OC(=O)c2cc(O)c(O)c(OC(=O)c3cc(O)c(O)c(O)c3)c2)[C@H](OC(=O)c2cc(O)c(O)c(OC(=O)c3cc(O)c(O)c(O)c3)c2)[C@@H](OC(=O)c2cc(O)c(O)c(OC(=O)c3cc(O)c(O)c(O)c3)c2)[C@@H]1OC(=O)c1cc(O)c(O)c(OC(=O)c2cc(O)c(O)c(O)c2)c1)c1cc(O)c(O)c(OC(=O)c2cc(O)c(O)c(O)c2)c1` [tannic acid], in data set [1], the “solubility in alcohols” value was “highly soluble” and the “solubility in water” value was “highly soluble”. In addition, in data set [2], the solubility in alcohols result was “soluble”, the “solubility in methylene chloride” value is reported as “insoluble”, the solubility in toluene result is “insoluble” and the solubility in water entry is recorded as “soluble”. Also, the solubility in chloroform entry in data set [2] (chloroform) was “insoluble”.
For guaifenesin tannate, in data set [3], the “solubility in methylene chloride (conclusion from Example 4)” value was “insoluble”.
In the case of guaifenesin tannate [Example 1], the “Insoluble Ppt.” value in data set [3] (2 g sample mixed with 110 g methylene chloride, stirred 10 minutes at ambient temperature, filtered, insoluble material dried and weighed) came out at 1.94 g. Besides, the “Soluble Ppt.” value in data set [3] (2 g sample mixed with 110 g methylene chloride, stirred 10 minutes at ambient temperature, filtrate evaporated to dryness, residue weighed) is on record as less than 8 mg.
Consider guaifenesin tannate [Example 2], for which, in data set [3], the “Insoluble Ppt.” value was 1.95 g and the “Soluble Ppt.” value is listed as less than 10 mg.
As for guaifenesin tannate [Example 3], in data set [3], the “Insoluble Ppt.” value was determined as 1.945 g and the “Soluble Ppt.” value is less than 7 mg.

The record behind these values is patent US6689817B1, “Process for preparing guaifenesin tannate” (Jame Fine Chemicals, Inc., priority 2001, dated 2004).
